Data on 57 compounds can be found in the OPERA property sets (Mansouri et al. 2018).

The structures appear in SMILES notation.

Take `CC(C)N1CCOC(c2ccccc2)C1` (configuration not stated): the logP (usually the decadic logarithm of the partition coefficient of the neutral form, usually between octanol and water) was 2.3.

Turning to `COCC(C)OC` (configuration not stated), the logP is -0.09. To `O=C(O)Cn1nc2ccccc2n1` belongs -1.64. To `C=CCN1CCc2nc(N)sc2CC1` belongs 1.48; to `CCCCCCCCNC(=O)c1[nH]nc(C)c1[N+](=O)[O-]`, 3.48. `O=C(CN1CCCCC1)Nc1ccccc1` yielded a logP of 2.71. For the compound `O=C(O)CCCCCc1ccccc1`, the logP came to 3.27.

Compound `CC(=O)OCC(COC(C)=O)OC(C)=O` returned a logP of 0.25. The compound `CCC(C)NC(=O)C=C(Br)c1ccccc1` (configuration not stated) gave a lipophilicity (logP) of 3.56. To `Nc1nccs1` belongs 0.38; to `Clc1ccccc1-c1ccccc1`, 4.53.

The compound `CN(C)c1cccc2c(S(N)(=O)=O)cccc12` returned a logP of 2.01.

Consider `O=C=O`, for which the lipophilicity (logP) was 0.83. To `CCCN(N=O)C(N)=O` belongs 0.3; to `CCOc1ccc(O)cc1`, 1.81; to `COc1ccc2c(c1)nc(N)n2C`, 0.87.

The compound `C[C@@H]1C[C@@H]([C@H](O)CC2CC(=O)NC(=O)C2)C(=O)[C@@H](C)C1` yielded a logP of 0.55. To `FC1(F)C(F)(F)C(F)(F)C(F)(F)C(F)(F)C1(F)F` belongs 2.91. As for `CC(=O)N(C)c1ccccc1`, the figure is 1.12. To `c1ccc2cnncc2c1` belongs 0.57; to `Nc1cccc2ncccc12`, 1.16. For `CC(C)NCC(O)COc1cccc2[nH]c3ccccc3c12` (configuration not stated), the logP amounted to 3.59. On to `Cc1cc(-c2ccccc2)nnc1NCCN1CCOCC1`, for which the lipophilicity (logP) was 2.03.

Compound `NS(=O)(=O)Cc1ccccc1` returned a log partition coefficient (logP) of 0.13.

For `C=CBr`, the logP stood at 1.57.

In turn, `Cc1ccc([N+](=O)[O-])cc1N` registered a logP of 1.87.

`N#Cc1cccc2[nH]ccc12` displayed a logP of 2.46. As for `CCCCC(=O)OCC1CCC(n2cnc3c(=O)[nH]cnc32)O1` (configuration not stated), the figure is 0.65; as for `CCN(C)N=Nc1ccc(C(N)=O)cc1`, 1.69. For the compound `COP(=O)(OC)C(O)C(Cl)(Cl)Cl` (configuration not stated), the logP came to 0.51.

On to `CSc1ccc(SC)nn1`, for which the logP was found to be 1.85. In the case of `CN(C)c1ccc(C=C[N+](=O)[O-])cc1`, the logP stood at 2.67. To `FC(F)(F)C(F)(F)F` belongs 2.

Take `C1COCCO1`: the logP was -0.27. To `O=Cc1ccccn1` belongs 0.44; to `Clc1ccccc1-c1cccc(Cl)c1Cl`, 5.31; to `C=CCc1cccc2c(=O)c(C)c(-c3ccccc3)oc12`, 4.67.

The compound `CCOCCOC(=O)C(C#N)=C(CC)Nc1ccc(N)cc1` registered a logP of 2.27. As for `CC(=O)Oc1ccccc1C`, the figure is 1.93; as for `CN1C(=O)SC(=Cc2ccc([N+](=O)[O-])o2)C1=O`, 1.78; as for `N#Cc1ccc2nc(N)[nH]c2c1`, 1.13. `CCN=C=S` came in with a logP of 1.47.

Take `Clc1cnc(Cl)c(Cl)c1`: the logP is 3.11. In the case of `ClCC(Cl)Cl`, the logP was 1.89. As for `COCc1ccccc1NC(=O)OCCN1CCCCC1`, the logP is 2.2. To `Nc1ccc2nc3ccccc3cc2c1` belongs 2.62.

On to `COC(=O)Cn1cnc([N+](=O)[O-])n1`, for which the logP is -0.38.

`O=CNc1ccc(F)cc1` displayed a logP of 1.27. `CC(C)Oc1cccc(COC(=O)N(C)C)c1` displayed a log partition coefficient (logP) of 3.03.

The compound `c1ccc(Cn2cnnc2)cc1` had a logP of 0.74.

With `C=CCN(C(C)=O)C(C)C`, the logP was 1.14.

Consider `Cc1ccc(O)c2ncccc12`, for which the log partition coefficient (logP) is 2.37. On to `CCC(C)N` (configuration not stated), for which the logP was found to be 0.74. To `CC(=O)c1ccc(Cl)cc1` belongs 2.32; to `CN(C)C(N(C)C)=S(I)c1cccc(C#N)c1` (configuration not stated), -1.1; to `Cc1ccc(/C(=C\CN2CCCC2)c2ccccn2)cc1`, 3.92. With `Nc1ccc(OC(=O)c2ccc(N)cc2O)cc1`, the logP is 2.04.
